Test results from paper PMC3659552 (Journal of Ginseng Research, 2011).

Target: AChE (acetylcholineserase)
Assay: Ellman spectrophotometric assay, […] nm
Type: biochemical, Electrophorus electricus
Conditions: acetylthiocholine iodide substrate; pH 8.0; 10 min preincubation

For `Nc1c2c(nc3ccccc13)CCCC2` [tacrine], which IC50 is on record?
Its IC50 is 825 nM.
